Patent US4638005A, “Monoquaternized pyrazinium compounds and their use as electron carriers in photosynthetic processes” (The Coca-Cola Company, priority 1983, dated 1987)

Tests used:
nitrogenase [1] = molecular target: T1, nitrogenase (Azotobacter vinelandii, UniProt P00459); experiment: Chloroplast-coupled reduction of acetylene to ethylene by nitrogenase (electron carrier bioassay of Benemann); assay type: biochemical; details: for ACTIVITY RELATIVE TO FERREDOXIN (%) / ACTIVITY (nmoles C2 H4 /mg protein/min): Table I; for ACTIVITY RELATIVE TO FERREDOXIN (%): acetylene reduction to ethylene; for ACTIVITY (nmoles C2 H4 /mg protein/min): illuminated spinach chloroplasts, synthetic carriers 2 mM, clostridial ferredoxin 0.2 mM; for ETHYLENE FORMATION % Ferredoxin Activity: Table III ranking; for % FERREDOXIN ACTIVITY: Table IV, acetylene reduction
T1 construct: the nitrogenase sample was prepared from a culture of Azotobacter vinelandii; endogenous in cells; host or cells: Azotobacter vinelandii culture; French press lysate, 10,000 x g supernatant (crude)
T1 sequence (P00459 2-290 limits assumed): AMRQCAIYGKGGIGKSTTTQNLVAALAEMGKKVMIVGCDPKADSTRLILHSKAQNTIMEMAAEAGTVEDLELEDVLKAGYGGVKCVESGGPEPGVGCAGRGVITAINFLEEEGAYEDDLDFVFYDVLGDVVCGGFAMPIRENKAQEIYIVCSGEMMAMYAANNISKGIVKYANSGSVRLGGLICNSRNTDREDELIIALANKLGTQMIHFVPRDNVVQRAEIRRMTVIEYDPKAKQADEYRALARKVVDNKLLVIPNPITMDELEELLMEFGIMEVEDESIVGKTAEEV
Procedure: The activity of the pyrazinium compounds as electron carriers in an illuminated photocouple process using isolated chloroplasts and the reductive enzyme catalyst nitrogenease has been determined using the bioassay of Benemann, et al., Proc. Natl. Acad. Sci. USA, 64, 1079(1969). In this method, the carrier activity is measured as a function of nitrogenase reduction of acetylene to ethylene, the rate of production of ethylene being the direct measurement.
(§1) For the bioassay, the nitrogenase sample was prepared from a culture of Azotobacter vinelandii grown to a cell density of about 1 g/l. The cells harvested by centrifugation were broken in a French press, cell debris spun off at 10,000 XG for 1 hr., and the supernatant containing 40 mg/ml protein was used in the bioassay experiments. […] chloroplasts from spinach leaves as described by Benemann were also used. The synthetic carriers were tested in aqueous solutions at concentrations of 2 mM, while the standard, clostridial ferredoxin, was used in 0.2 mM aqueous solution. The concentrations of carriers in the assay mixtures were chosen so as to guarantee carrier saturation conditions. Thus, the observed differences in rates of ethylene production from the substrate acetylene were assigned directly to variations in the efficiency of electron transfer from the illuminated chloroplast to the nitrogenase. The results obtained for acetylene reduction (nitrogen fixation) using the pyrazinium compounds of Examples 1 through 42 are summarized in Table I and are expressed as nmoles of ethylene produced per mg protein per minute.

nitrogenase [2] = molecular target: T1, nitrogenase; experiment: Chloroplast-coupled evolution of hydrogen by nitrogenase in the absence of substrate; assay type: biochemical; details: Table II, hydrogen evolution; for ACTIVITY (nmoles H2 /mg protein/min): no nitrogen or acetylene, synthetic carriers 2 mM, ferredoxin 0.2 mM
Procedure: as §1
It has been recognized for sometime the connection existing between hydrogen metabolism and nitrogen fixation. […] When nitrogenase was purified extensively, as mentioned above, it became apparent that in addition to nitrogen, nitrogenase also catalyzed the reduction of protons. The evolution of hydrogen is particularly active in the absence of the normal substrates for nitrogenase (nitrogen, acetylene, cyanide, azide, etc.), and is dependent upon a strong reductant and adenosine triphosphate hydrolysis. Since hydrogen evolution is not inhibited by CO, but reduction of nitrogen and other substrates is, the reduction of protons presumably occurs at a site other than the site of nitrogen reduction, H. C. Winter, et. al., Ann Rev. Biochem, 45, 409 (1976). Accordingly, with the same bioassay system and with exclusion of nitrogen, and acetylene, the activity of the pyrazinium compounds to act as carriers for production of hydrogen has been determined.
The results of this study, which are summarized in Table II, indicate that the pyrazinium salts that mediate the reduction of acetylene with electrons from the photoexcited chloroplast, are also mediating the reduction of protons by the nitrogenase.

[3] = Polarographic half-wave potential (first wave reduction); assay type: physicochemical; details: 0.1 M phosphate buffer pH 7.55, 25° C.
Description: Sci., 65, 1471(1976). Therefore, it was of interest to measure polarographically the half-wave potentials of the several pyrazinium salts under consideration, to determine the possible effect of structure upon their redox potentials.

SMILES	ACTIVITY RELATIVE TO FERREDOXIN (%) (nitrogenase [1])	ACTIVITY (nmoles C2 H4 /mg protein/min) (nitrogenase [1])	ETHYLENE FORMATION % Ferredoxin Activity (nitrogenase [1]) [%]	% FERREDOXIN ACTIVITY (nitrogenase [1]) [%]	ACTIVITY RELATIVE TO FERREDOXIN (%) (nitrogenase [2])	ACTIVITY (nmoles H2 /mg protein/min) (nitrogenase [2])	E1/2 vs. SCE (mV) [3] [mV]
O=C(O)CC[n+]1ccncc1.[Br-] [Compound 800, 1-(2-Carboxyethyl)pyrazinium bromide]	50	6.8 nmoles C2 H4 /mg protein/min	50	50	28	7.5	-625
CCCCc1c[n+](C)ccn1 [Compound 5000]	0	0.0 nmoles C2 H4 /mg protein/min	0	0	0	0.0	-676
CCC(=O)Cc1c[n+](C)ccn1 [Compound 3500, 1-Methyl-3-(2-oxybutyl)pyrazinium iodide]	5	0.7 nmoles C2 H4 /mg protein/min	5	5	19	5.0	-575
C[n+]1ccnc(CCS(=O)(=O)[O-])c1 [Compound 2600]	98	13.2 nmoles C2 H4 /mg protein/min	98	98	154	41.2	-730
C[n+]1ccnc(C(C)(C)[N+](=O)[O-])c1.[I-] [Compound 3700, 1-Methyl-3-(1-nitroisopropyl)pyrazinium iodide]	31	4.2 nmoles C2 H4 /mg protein/min	31	31	32	8.6	-701
Cc1c[n+](C)cc(CS(=O)(=O)[O-])n1 [Compound 3000]	99	13.4 nmoles C2 H4 /mg protein/min	99	99	124	33.1	-738
CC(=O)NCCc1c[n+](C)ccn1.[I-] [Compound 3800, 1-Methyl-3-(2-acetamidoethyl)pyrazinium iodide]	15	2.0 nmoles C2 H4 /mg protein/min	15	15	22	5.8	-681
C[n+]1ccnc(C(N)=O)c1 [Compound 4600]	0	0.0 nmoles C2 H4 /mg protein/min	0	0	0	0.0	-479
COC(=O)CCc1c[n+](C)ccn1.[I-] [Compound 3901, 1-methyl-3-(2-carbomethoxyethyl)pyrazinium iodide]	22	3.0 nmoles C2 H4 /mg protein/min	22	22	26	6.9	-685
Cc1c[n+](C)ccn1 [Compound 4300]	5	0.7 nmoles C2 H4 /mg protein/min	5	5	14	3.7	-696
CC(O)c1c[n+](C)ccn1 (stereo not drawn) [Compound 200, 1-Methyl-3-(1-hydroxyelhyl)pyrazinium iodide]	17	2.3 nmoles C2 H4 /mg protein/min	17	17	64	17.2	-699
C[n+]1ccnc(CC(C(O)CO)S(=O)(=O)[O-])c1 (stereo not drawn) [Compound 4100]	110	14.8 nmoles C2 H4 /mg protein/min	110	110	73	19.4	-720
Cc1cnc(CS(=O)(=O)[O-])c[n+]1C [Compound 3200]	98	13.3 nmoles C2 H4 /mg protein/min	98	98	161	43.1	-673
C[n+]1ccnc(CCO)c1.[I-] [Compound 300, 1-Methyl-3-(2-hydroxyethyl)pyrazinium iodide]	41	5.5 nmoles C2 H4 /mg protein/min	41	41	30	8.1	-683
CC(c1c[n+](C)ccn1)S(=O)(=O)[O-] (stereo not drawn) [Compound 2400]	105	14.2 nmoles C2 H4 /mg protein/min	105	105	128	34.1	-701
C[n+]1ccnc(CCC(N)=O)c1 [Compound 4000, 1-Methyl-3-(2-carboxamidoethyl)pyrazinium iodide]	28	3.8 nmoles C2 H4 /mg protein/min	28	28	36	9.5	-685
CCC(O)Cc1c[n+](C)ccn1.[I-] (stereo not drawn) [Compound 3400, 1-Methyl-3-(2-hydroxybutyl)pyrazinium iodide]	20	2.7 nmoles C2 H4 /mg protein/min	20	20	111	29.7	-680
CCCC(c1c[n+](C)ccn1)S(=O)(=O)[O-] (stereo not drawn) [Compound 1200]	107	14.5 nmoles C2 H4 /mg protein/min	107	107	143	38.1	-699
